Series [1] deals with T1, human dopamine D2L receptors (long isoform) (Homo sapiens, UniProt P14416).
T1 construct: expressed in transfected cells; host or cells: HEK-293
Description: Dopamine D2L receptor binding, [125I]-iodospiperone displacement. Particulars: selectivity ratio Ki (D2L)/Ki (D3). As for the experimental part: (§1) The substance to be tested was either dissolved in methanol/Chremophor® (BASF SE) or in dimethyl sulfoxide and then diluted with water to the desired concentration.
(§2) Each assay mixture was run in triplicate. • The incubation buffer contained 50 mM tris, 120 mM NaCl, 5 mM KCl, 2 mM CaCl2, 2 mM MgCl2 and 0.1% bovine serum albumin, 10 μM quinolone and 0.1% ascorbic acid (prepared fresh daily). […] Each assay mixture was run in triplicate. • The incubation buffer contained 50 mM tris, 120 mM NaCl, 5 mM KCl, 2 mM CaCl2, 2 mM MgCl2 and 0.1% bovine serum albumin. The buffer was adjusted to pH 7.4 with HCl. c) Measurement and Analysis: • After having been incubated at 25° C. for 60 minutes, the assay mixtures were filtered through a Whatman GF/B glass fiber filter under vacuum using a cell collecting device. The filters were transferred to scintillation viols using a filter transfer system. After 4 ml of Ultima Gold® (Packard) have been added, the samples were shaken for one hour and the radioactivity was then counted in a Beta-Counter (Packard, Tricarb 2000 or 2200CA).

In series [2] the target is T2, human dopamine D3 receptors (Homo sapiens, UniProt P35462).
T2 construct: expressed in transfected cells; host or cells: HEK-293
Description: Dopamine D3 receptor binding, [125I]-iodosulpride displacement. Particulars: membranes of HEK-293 cells with human D3 receptors, 0.1 nM [125I]-iodosulpride. The method, then:
as §1, §2

Series [3] in a line: Determination of the microsomal half-life / microsomal clearance. The class given is in vitro ADME. Particulars: human liver microsomes, 0.5 μM test substance, 0.25 mg microsomal protein/ml, pH 7.4, 37° C. The method, then: The metabolic stability of the compounds of the invention was determined in the following assay.
The test substances were incubated in a concentration of 0.5 μM as follows:
0.5 μM test substance are preincubated together with liver microsomes from different species (from rat, human or other species) (0.25 mg of microsomal protein/ml) in 0.05 M potassium phosphate buffer of pH 7.4 in microtiter plates at 37° C. for 5 min. The reaction is started by adding NADPH (1 mg/mL). After 0, 5, 10, 15, 20 and 30 min, 50 μl aliquots are removed, and the reaction is immediately stopped and cooled with the same volume of acetonitrile. The samples are frozen until analyzed. The remaining concentration of undegraded test substance is determined by MSMS. The half-life (T1/2) is determined from the gradient of the signal of test substance/unit time plot, it being possible to calculate the half-life of the test substance, assuming first order kinetics, from the decrease in the concentration of the compound with time. The microsomal clearance (mCl) is calculated from mCl=1n2/T1/2/(content of microsomal protein in mg/ml)×1000 [[…]] (modified from references: Di, The Society for Biomoleculur Screening, 2003, 453-462; Obach, DMD, 1999 vol 27. N 11, 1350-1359).
For orientation: Liver microsomes are vesicles of endoplasmic reticulum, rich in cytochrome P450 enzymes.

We go through 16 molecules from patent US9388141B2, “Acylaminocycloalkyl compounds suitable for treating disorders that respond to modulation of dopamine D3 receptor” (AbbVie Deutschland GmbH & Co. KG, priority 2013, dated 2016).

T1 sequence (P14416 whole entry, canonical isoform): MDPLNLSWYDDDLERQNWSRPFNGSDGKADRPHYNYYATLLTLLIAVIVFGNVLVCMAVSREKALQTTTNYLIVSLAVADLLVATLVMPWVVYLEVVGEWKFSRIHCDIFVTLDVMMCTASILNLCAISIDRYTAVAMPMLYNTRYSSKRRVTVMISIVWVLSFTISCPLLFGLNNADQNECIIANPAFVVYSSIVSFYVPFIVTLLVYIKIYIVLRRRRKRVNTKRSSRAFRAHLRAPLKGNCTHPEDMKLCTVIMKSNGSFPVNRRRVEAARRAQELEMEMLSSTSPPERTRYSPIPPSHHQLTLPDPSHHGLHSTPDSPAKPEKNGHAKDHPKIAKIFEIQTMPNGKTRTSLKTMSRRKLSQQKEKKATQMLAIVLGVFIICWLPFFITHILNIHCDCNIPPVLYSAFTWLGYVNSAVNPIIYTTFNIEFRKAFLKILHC
T2 sequence (P35462 whole entry): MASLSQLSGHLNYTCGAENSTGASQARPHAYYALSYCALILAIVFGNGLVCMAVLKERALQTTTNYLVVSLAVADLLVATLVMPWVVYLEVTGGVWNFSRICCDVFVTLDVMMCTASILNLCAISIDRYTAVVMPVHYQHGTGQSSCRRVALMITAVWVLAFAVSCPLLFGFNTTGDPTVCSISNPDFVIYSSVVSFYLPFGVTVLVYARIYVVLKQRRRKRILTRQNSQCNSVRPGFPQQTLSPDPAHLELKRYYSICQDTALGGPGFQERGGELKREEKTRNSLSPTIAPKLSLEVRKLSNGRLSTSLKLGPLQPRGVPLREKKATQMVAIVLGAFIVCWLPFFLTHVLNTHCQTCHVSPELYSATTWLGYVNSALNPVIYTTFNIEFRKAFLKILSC

One may read the Ki as the equilibrium dissociation constant of an inhibitor or competing ligand from its target. Low readings indicate higher affinity, high ones lower affinity. As for `CC(C)c1cc(N2CCN(CCC3CCC(NC(=O)C4CCC(O)CC4)CC3)CC2)nc(C(C)(C)C)n1` (stereo not drawn) [Compound 31, N-[4-[2-[4-(2-tert-butyl-6-isopropyl-pyrimidin-4-yl)piperazin-1-yl]ethyl]cyclohexyl]-4-hydroxy-cyclohexanecarboxamide], the “D2/D3, Ki (D2L)/Ki (D3)” value in series [1] is “++ (++>20)”. The molecule further had an inhibitory constant (Ki) in series [2] of less than 10 nM. Besides, in series [3], the “Human mCl” value was “+ (+: 20-120 μl min^−1 mg^−1)”.

As for `CC(C)(C)c1nc(C2CCCC2)cc(N2CCN(CC[C@H]3CC[C@@H](NC(=O)[C@H]4CC[C@H](O)CC4)CC3)CC2)n1` [Compound 36, trans-N-[cis-4-[2-[4-(2-tert-butyl-6-cyclopentyl-pyrimidin-4-yl)piperazin-1-yl]ethyl]cyclohexyl]-4-hydroxy-cyclohexanecarboxamide], the “D2/D3, Ki (D2L)/Ki (D3)” value in series [1] was “+++ (+++>50)”. The molecule also showed a Ki in series [2] of less than 10 nM. For the same molecule, in series [3], the “Human mCl” value is “+ (+: 20-120 μl min^−1 mg^−1)”.

Consider `COCCc1cc(N2CCN(CC[C@H]3CC[C@@H](NC(=O)[C@H]4C[C@@H](O)C4)CC3)CC2)nc(C(C)(C)C)n1` [Compound 17, cis-N-[cis-4-[2-[4-[2-tert-butyl-6-(2-methoxyethyl)pyrimidin-4-yl]piperazin-1-yl]ethyl]cyclohexyl]-3-hydroxy-cyclobutanecarboxamide], for which the “D2/D3, Ki (D2L)/Ki (D3)” value in series [1] was “+++ (+++>50)”. In series [2], this molecule displayed an inhibitory constant (Ki) of less than 10 nM. Also, the “Human mCl” value in series [3] is on record as “∘ (∘: >120 μl min^−1 mg^−1)”.

For `CC(C)c1cc(N2CCN(CC[C@H]3CC[C@H](NC(=O)[C@H]4CC[C@H](O)CC4)CC3)CC2)nc(C(C)(C)C)n1` [Compound 32, Trans-N-[trans-4-[2-[4-(2-tert-butyl-6-isopropyl-pyrimidin-4-yl)piperazin-1-yl]ethyl]cyclohexyl]-4-hydroxy-cyclohexanecarboxamide], the “D2/D3, Ki (D2L)/Ki (D3)” value in series [1] was “++ (++>20)”. The molecule also showed a Ki in series [2] of less than 10 nM. Further, in series [3], the “Human mCl” value is recorded as “+ (+: 20-120 μl min^−1 mg^−1)”.

For `CC(C)(C)c1nc(N2CCN(CCC3CCC(NC(=O)C4CCC(O)CC4)CC3)CC2)cc(C2(C)CC2)n1` (stereo not drawn) [Compound 27, N-[4-[2-[4-[2-tert-butyl-6-(1-methylcyclopropyl)pyrimidin-4-yl]piperazin-1-yl]ethyl]cyclohexyl]-4-hydroxy-cyclohexanecarboxamide], the “D2/D3, Ki (D2L)/Ki (D3)” value in series [1] was “++ (++>20)”. The Ki in series [2] was less than 10 nM. Also, in series [3], the “Human mCl” value was “+ (+: 20-120 μl min^−1 mg^−1)”.

Consider `CC(C)(C)c1nc(N2CCN(CC[C@H]3CC[C@@H](NC(=O)[C@H]4CC[C@H](O)CC4)CC3)CC2)cc(C(F)(F)F)n1` [Compound 23, Trans-N-[cis-4-[2-[4-[2-tert-butyl-6-(trifluoromethyl)pyrimidin-4-yl]piperazin-1-yl]ethyl]cyclohexyl]-4-hydroxy-cyclohexanecarboxamide], for which the “D2/D3, Ki (D2L)/Ki (D3)” value in series [1] is listed as “+++ (+++>50)”. Further, in series [2], the Ki was less than 50 nM. The “Human mCl” value in series [3] is “+ (+: 20-120 μl min^−1 mg^−1)”.

For `COCCc1cc(N2CCN(CC[C@H]3CC[C@H](NC(=O)C4CC(O)(C(F)(F)F)C4)CC3)CC2)nc(C(C)(C)C)n1` (relative stereo) [Compound 25, N-[trans-4-[2-[4-[2-tert-butyl-6-(2-methoxyethyl)pyrimidin-4-yl]piperazin-1-yl]ethyl]cyclohexyl]-3-hydroxy-3-(trifluoromethyl)cyclobutanecarboxamide], in series [1], the “D2/D3, Ki (D2L)/Ki (D3)” value is recorded as “++ (++>20)”. The inhibitory constant (Ki) in series [2] was less than 10 nM. For the same molecule, the “Human mCl” value in series [3] is recorded as “∘ (∘: >120 μl min^−1 mg^−1)”.

Consider `COCCc1cc(N2CCN(CC[C@H]3CC[C@H](NC(=O)[C@H]4CC[C@@H](O)CC4)CC3)CC2)nc(C(C)(C)C)n1` [Compound 4, cis-N-[trans-4-[2-[4-[2-tert-butyl-6-(2-methoxyethyl)pyrimidin-4-yl]piperazin-1-yl]ethyl]cyclohexyl]-4-hydroxy-cyclohexanecarboxamide], for which, in series [1], the “D2/D3, Ki (D2L)/Ki (D3)” value was “++ (++>20)”. Also, the Ki in series [2] is less than 10 nM. In addition, in series [3], the “Human mCl” value was “∘ (∘: >120 μl min^−1 mg^−1)”.

As for `COCCc1cc(N2CCN(CC[C@H]3CC[C@@H](NC(=O)[C@H]4CC[C@H](O)CC4)CC3)CC2)nc(C(C)(C)C)n1` [Compound 3, trans-N-[cis-4-[2-[4-[2-tert-butyl-6-(2-methoxyethyl)pyrimidin-4-yl]piperazin-1-yl]ethyl]cyclohexyl]-4-hydroxy-cyclohexanecarboxamide], the “D2/D3, Ki (D2L)/Ki (D3)” value in series [1] is listed as “++ (++>20)”. In series [2], this molecule yielded an inhibition constant Ki of less than 10 nM. Besides, the “Human mCl” value in series [3] was “+ (+: 20-120 μl min^−1 mg^−1)”.

Turning to `COCCc1cc(N2CCN(CC[C@H]3CC[C@H](NC(=O)[C@H]4CC[C@H](OC)CC4)CC3)CC2)nc(C(C)(C)C)n1` [Compound 24, trans-N-[trans-4-[2-[4-[2-tert-butyl-6-(2-methoxyethyl)pyrimidin-4-yl]piperazin-1-yl]ethyl]cyclohexyl]-4-methoxy-cyclohexanecarboxamide], the “D2/D3, Ki (D2L)/Ki (D3)” value in series [1] is “++ (++>20)”. Moreover, the Ki in series [2] is less than 50 nM. Also, the “Human mCl” value in series [3] was “∘ (∘: >120 μl min^−1 mg^−1)”.

As for `CC(C)(C)c1nc(N2CCN(CC[C@H]3CC[C@@H](NC(=O)[C@H]4CC[C@H](O)CC4)CC3)CC2)cc(C2(C)CC2)n1` [Compound 28, Trans-N-[cis-4-[2-[4-[2-tert-butyl-6-(1-methylcyclopropyl)pyrimidin-4-yl]piperazin-1-yl]ethyl]cyclohexyl]-4-hydroxy-cyclohexanecarboxamide], in series [1], the “D2/D3, Ki (D2L)/Ki (D3)” value was “++ (++>20)”. The inhibition constant (Ki) in series [2] was less than 10 nM. Also, the “Human mCl” value in series [3] is recorded as “+ (+: 20-120 μl min^−1 mg^−1)”.

With `CC(C)(C)c1nc(C2CCC2)cc(N2CCN(CC[C@H]3C[C@H](NC(=O)[C@H]4C[C@H](O)C4)C3)CC2)n1.O=C(O)C(F)(F)F` [Compound 39, trans-N-[trans-3-[2-[4-(2-tert-butyl-6-cyclobutyl-pyrimidin-4-yl)piperazin-1-yl]ethyl]cyclobutyl]-3-hydroxy-cyclobutanecarboxamide; 2,2,2-trifluoroacetic acid], the “D2/D3, Ki (D2L)/Ki (D3)” value in series [1] is reported as “+++ (+++>50)”. The Ki in series [2] was less than 10 nM. Moreover, in series [3], the “Human mCl” value is recorded as “++ (++: <20 μl min^−1 mg^−1)”.

Regarding `COCCc1cc(N2CCN(CC[C@H]3C[C@@H](NC(=O)[C@H]4CC[C@@H](O)CC4)C3)CC2)nc(C(C)(C)C)n1` [Compound 12, Cis-N-[cis-3-[2-[4-[2-tert-butyl-6-(2-methoxyethyl)pyrimidin-4-yl]piperazin-1-yl]ethyl]cyclobutyl]-4-hydroxy-cyclohexanecarboxamide], the “D2/D3, Ki (D2L)/Ki (D3)” value in series [1] is on record as “+++ (+++>50)”. The molecule also yielded a Ki in series [2] of less than 50 nM. The “Human mCl” value in series [3] is listed as “+ (+: 20-120 μl min^−1 mg^−1)”.

Turning to `CC(C)(C)c1nc(N2CCN(CC[C@H]3CC[C@H](NC(=O)[C@H]4CC[C@H](O)CC4)CC3)CC2)cc(C(F)(F)F)n1` [Compound 21, trans-N-[trans-4-[2-[4-[2-tert-butyl-6-(trifluoromethyl)pyrimidin-4-yl]piperazin-1-yl]ethyl]cyclohexyl]-4-hydroxy-cyclohexanecarboxamide], in series [1], the “D2/D3, Ki (D2L)/Ki (D3)” value is “++ (++>20)”. The same molecule yielded a Ki in series [2] of less than 10 nM. Further, in series [3], the “Human mCl” value is “+ (+: 20-120 μl min^−1 mg^−1)”.

As to `CC(C)(C)c1nc(C2CCC2)cc(N2CCN(CC[C@H]3C[C@@H](NC(=O)[C@H]4CC[C@H](O)CC4)C3)CC2)n1` [Compound 10, Trans-N-[cis-3-[2-[4-(2-tert-butyl-6-cyclobutyl-pyrimidin-4-yl)piperazin-1-yl]ethyl]cyclobutyl]-4-hydroxy-cyclohexanecarboxamide], the “D2/D3, Ki (D2L)/Ki (D3)” value in series [1] is “+++ (+++>50)”. The inhibition constant (Ki) in series [2] was less than 10 nM. In addition, the “Human mCl” value in series [3] was “+ (+: 20-120 μl min^−1 mg^−1)”.

With `CC(C)(C)c1nc(C2CCC2)cc(N2CCN(CC[C@H]3CC[C@@H](NC(=O)[C@H]4CC[C@H](O)CC4)CC3)CC2)n1` [Compound 6, trans-N-[cis-4-[2-[4-(2-tert-butyl-6-cyclobutyl-pyrimidin-4-yl)piperazin-1-yl]ethyl]cyclohexyl]-4-hydroxy-cyclohexanecarboxamide], in series [1], the “D2/D3, Ki (D2L)/Ki (D3)” value was “+++ (+++>50)”. Besides, the Ki in series [2] was less than 10 nM. Moreover, the “Human mCl” value in series [3] is on record as “+ (+: 20-120 μl min^−1 mg^−1)”.
